# Experimental data published in PMC9779606, “Synthesis, Structural Characterization and Biological Activity Evaluation of Novel Cu(II) Complexes with 3-(trifluoromethyl)phenylthiourea Derivatives” (International Journal of Molecular Sciences, 2022).
# Read-outs that look alike come from different tables or passages of the source.
# Key:
# S. aureus 522 = test: MIC, hospital methicillin-resistant strains (MRSA); conditions: hospital MRSA strain S. aureus 522
# S. epidermidis 423 = test: MIC, hospital methicillin-resistant strains (MRSE); conditions: hospital MRSE strain S. epidermidis 423
# C. albicans ATCC 10231 = test: MIC, twofold serial microdilution, standard fungal strains; conditions: C. albicans ATCC 10231, standard strain
# S. epidermidis 471 = test: MIC, hospital methicillin-resistant strains (MRSE); conditions: hospital MRSE strain S. epidermidis 471
# S. epidermidis 435 = test: MIC, hospital methicillin-resistant strains (MRSE); conditions: hospital MRSE strain S. epidermidis 435
# S. aureus 586 = test: MIC, hospital methicillin-resistant strains (MRSA); conditions: hospital MRSA strain S. aureus 586
# S. aureus 481 = test: MIC, hospital methicillin-resistant strains (MRSA); conditions: hospital MRSA strain S. aureus 481
# S. epidermidis 436 = test: MIC, hospital methicillin-resistant strains (MRSE); conditions: hospital MRSE strain S. epidermidis 436
# [1] = system: S. epidermidis ATCC 35984; test: MIC, twofold serial microdilution, standard strains; conditions: S. epidermidis ATCC 35984, standard strain
# S. aureus 537 = test: MIC, hospital methicillin-resistant strains (MRSA); conditions: hospital MRSA strain S. aureus 537
# [2] = system: methicillin-resistant Staphylococci (MRSA, MRSE)
# S. aureus 568 = test: MIC, hospital methicillin-resistant strains (MRSA); conditions: hospital MRSA strain S. aureus 568
# S. aureus 573 = test: MIC, hospital methicillin-resistant strains (MRSA); conditions: hospital MRSA strain S. aureus 573
# P. aeruginosa ATCC 27853 = test: MIC, twofold serial microdilution, standard strains; conditions: P. aeruginosa ATCC 27853, standard strain
# [3] = system: S. epidermidis ATCC 12228; test: as above; conditions: S. epidermidis ATCC 12228, standard strain
# S. aureus 572 = test: MIC, hospital methicillin-resistant strains (MRSA); conditions: hospital MRSA strain S. aureus 572
# [4] = system: C. parapsilosis ATCC 22019; test: MIC, twofold serial microdilution, standard fungal strains; conditions: C. parapsilosis ATCC 22019, standard strain
# [5] = system: Bacillus subtilis M45 (rec−); conditions: B. subtilis M45 (rec−); 256 µg per 9 mm disc (NOQ 2 µg per disc)
# Procedure: (§1) DNA-damaging activity of compounds was tested by rec-assay using two genetically modified Bacillus subtilis strains: M45 (rec^−) and H17 (rec^+). Tested compounds were dissolved in DMSO, and 10 µL of each solution was dripped onto sterile cotton discs (Rotilabo) to load 256 µg of a given compound per 9 mm disc. Discs were placed on the surface Nutrient agar plates (Difco) inoculated with 100 µL of bacterial overnight culture and incubated for 24 h at 35 °C. After incubation, the growth inhibition zones were measured. […] Results of the genotoxicity test were estimated after 18 h of incubation at 35 °C by comparing the diameter of the inhibition zone on the B. subtilis M45 (rec^−) strain with that on the B. subtilis H17 (rec^+) strain.
# [6] = system: Bacillus subtilis H17 (rec+); conditions: B. subtilis H17 (rec+); 256 µg per 9 mm disc (NOQ 2 µg per disc)
# Procedure: as §1
# S. epidermidis 438 = test: MIC, hospital methicillin-resistant strains (MRSE); conditions: hospital MRSE strain S. epidermidis 438
# S. epidermidis 513 = test: MIC, hospital methicillin-resistant strains (MRSE); conditions: hospital MRSE strain S. epidermidis 513
# S. aureus ATCC 29213 = test: MIC, twofold serial microdilution, standard strains; conditions: S. aureus ATCC 29213, standard strain
# P. aeruginosa ATCC 15442 = test: as above; conditions: P. aeruginosa ATCC 15442, standard strain
# S. epidermidis 420 = test: MIC, hospital methicillin-resistant strains (MRSE); conditions: hospital MRSE strain S. epidermidis 420
# E. coli NCTC 10538 = test: MIC, twofold serial microdilution, standard strains; conditions: E. coli NCTC 10538, standard strain
# C. albicans ATCC 90028 = test: MIC, twofold serial microdilution, standard fungal strains; conditions: C. albicans ATCC 90028, standard strain
# S. aureus 567 = test: MIC, hospital methicillin-resistant strains (MRSA); conditions: hospital MRSA strain S. aureus 567
# S. epidermidis 432 = test: MIC, hospital methicillin-resistant strains (MRSE); conditions: hospital MRSE strain S. epidermidis 432
# S. epidermidis 510 = test: MIC, hospital methicillin-resistant strains (MRSE); conditions: hospital MRSE strain S. epidermidis 510
# M. tuberculosis H37Rv = test: Tuberculostatic activity, Microplate Alamar Blue Assay (MABA); assay type: cell-based, Mycobacterium tuberculosis; conditions: M. tuberculosis H37Rv, standard strain, MABA
# [7] = system: M. tuberculosis Spec. 192; test: as above; assay type: cell-based, Mycobacterium tuberculosis; conditions: M. tuberculosis Spec. 192, patient isolate fully sensitive to tuberculostatics, MABA
structure (smiles),measurement,setting,value
"O.O=[N+]([O-])c1cc(NC(=S)[N-]c2cccc(C(F)(F)F)c2)ccc1Cl.O=[N+]([O-])c1cc(NC(=S)[N-]c2cccc(C(F)(F)F)c2)ccc1Cl.[Cu+2] [Cu5, Copper(II) Complex with 1-(4-chloro-3-nitrophenyl)-3-[3-(trifluoromethyl)phenyl]thiourea]",MIC,S. aureus 522,2 µg/mL
same,MIC,S. epidermidis 423,4 µg/mL
same,MIC,C. albicans ATCC 10231,128 µg/mL
same,MIC,S. epidermidis 471,4 µg/mL
same,MIC,S. epidermidis 435,2 µg/mL
same,MIC,S. aureus 586,4 µg/mL
same,MIC,S. aureus 481,2 µg/mL
same,MIC,S. epidermidis 436,2 µg/mL
same,MIC,[1],4 µg/mL
same,MIC,S. aureus 537,4 µg/mL
same,"MIC, methicillin-resistant Staphylococci",[2]; 19 strains (above half) of tested hospital Staphylococci,2 µg/mL
same,"MIC, methicillin-resistant Staphylococci","[2]; S. aureus 537, 585, and 586 strains and half of the S. epidermidis isolates",4 µg/mL
same,MIC,S. aureus 568,2 µg/mL
same,MIC,S. aureus 573,2 µg/mL
same,MIC,P. aeruginosa ATCC 27853,>256 µg/mL
same,MIC,[3],4 µg/mL
same,MIC,S. aureus 572,2 µg/mL
same,MIC,[4],128 µg/mL
same,"Genotoxic activity, inhibition zone diameter, M45",[5],17 mm
same,"Genotoxic activity, inhibition zone diameter, H17",[6],18 mm
same,MIC,S. epidermidis 438,2 µg/mL
same,MIC,S. epidermidis 513,2 µg/mL
same,MIC,S. aureus ATCC 29213,4 µg/mL
same,MIC,P. aeruginosa ATCC 15442,128 µg/mL
same,MIC,S. epidermidis 420,4 µg/mL
same,MIC,E. coli NCTC 10538,>256 µg/mL
same,MIC,C. albicans ATCC 90028,128 µg/mL
same,MIC,S. aureus 567,2 µg/mL
same,MIC,S. epidermidis 432,2 µg/mL
same,MIC,S. epidermidis 510,4 µg/mL
same,MIC,M. tuberculosis H37Rv,4 µg/mL
same,MIC,[7],4 µg/mL
